The source of these data is ChEMBL document CHEMBL1122010 (J Med Chem, 1982).

Assay [1] concerns HEp-2. Kind of assay: Effective dose against H.Ep.-2 cells. The format is functional. To be noted: Homo sapiens, read-out: ED50 (the source's name).
The test system of assay [2] is L1210. Briefly: Ki value was measured as influx in L1210 cell membrane transport. The class given is functional, cell-based, Mus musculus.
Assay [3] concerns L1210. Briefly: Km value was measured as influx in L1210 cell membrane transport. The class given is functional, cell-based. The note with it: Mus musculus.
For assay [4], the system named is L1210. Kind of assay: k value was measured as efflux in L1210 cell membrane transport. The class given is functional, Mus musculus.
Assay [5] is described as follows: The compound was compared with MTX with respect to cytotoxicity toward H.Ep.-2 cells. The format is functional.
Assay [6] addresses T1, Dihydrofolate reductase (Mus musculus, UniProt P00375).
T1 sequence (P00375 whole entry): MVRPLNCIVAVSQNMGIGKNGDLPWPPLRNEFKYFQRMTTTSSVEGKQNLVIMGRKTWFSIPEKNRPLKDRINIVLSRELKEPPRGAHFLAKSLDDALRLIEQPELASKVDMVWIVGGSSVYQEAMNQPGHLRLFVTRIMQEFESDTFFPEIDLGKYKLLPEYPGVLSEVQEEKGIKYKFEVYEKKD
Kind of assay: Inhibition of Dihydrofolate reductase in mouse L1210 cells. The format is cell-based.

In assay [7] the test system is L1210. Kind of assay: Percent increase in life span was measured against L1210 murine leukemia cells at the dose of 100 mg/kg. The class given is functional. To be noted: Mus musculus.
Assay [8] concerns L1210. Kind of assay: Percent increase in life span was measured against L1210 murine leukemia cells at the dose of 5 mg/kg. To be noted: Mus musculus. The format is functional.
Assay [9] deals with L1210. Kind of assay: Percent increase in life span was measured against L1210 murine leukemia cells at the dose of 200 mg/kg. The format is functional. To be noted: Mus musculus.
Assay [10] has as its system L1210. Kind of assay: Percent increase in life span was measured against L1210 murine leukemia cells at the dose of 25 mg/kg. The note with it: Mus musculus. The class given is functional.
Assay [11] deals with L1210. Briefly: Percent increase in life span was measured against L1210 murine leukemia cells at the dose of 2.5 mg/kg. The format is functional. The note with it: Mus musculus.
Assay [12] concerns L1210. Kind of assay: Percent increase in life span was measured against L1210 murine leukemia cells at the dose of 1.3 mg/kg. The note with it: Mus musculus. The format is functional.
The subject of assay [13] is L1210. Kind of assay: Percent increase in life span was measured against L1210 murine leukemia cells at the dose of 50 mg/kg. The class given is functional. To be noted: Mus musculus.
Assay [14] has as its system L1210. Kind of assay: Percent increase in life span was measured against L1210 murine leukemia cells at the dose of 180 mg/kg. The format is functional. To be noted: Mus musculus.

One may read the Ki as the dissociation constant of the complex between target and ligand, obtained from inhibition or displacement. The term Km denotes the concentration of substrate that gives half-maximal velocity. Usually ILS stands for how much longer treated animals lived than controls. A high value points to much gain in survival. Turning to `CN(Cc1cnc2nc(N)nc(N)c2n1)c1ccc(C(=O)NC(CCC(=O)NCc2ccccc2)C(=O)O)cc1` (stereo not drawn), in assay [1], the EC50 was determined as 210 nM. Also, the values for the Ki in assay [2] and in assay [6] were 3800 nM and 0.0036 nM, respectively. The Km in assay [3] was 3.6 µM. Further, the k in [4] worked out at 0.19 min⁻¹. The MTX ratio in [5] is on record as 88. Moreover, the increase in life span (ILS) at 100 mg/kg in assay [7] worked out at 33%.
In turn, `CN(Cc1cnc2nc(N)nc(N)c2n1)c1ccc(C(=O)NC(CCC(=O)NCC(=O)O)C(=O)O)cc1` (stereo not drawn) showed an ILS at 5 mg/kg in assay [8] of 74%. Further, the EC50 in assay [1] is 5.9 nM. Further, the Km in assay [3] stood at 3.9 µM. The k in [4] was determined as 2.1 min⁻¹. Moreover, the MTX ratio in assay [5] is on record as 2.5. Also, the affinity in [6] corresponds to a Ki of 0.0029 nM.
`CN(Cc1cnc2nc(N)nc(N)c2n1)c1ccc(C(=O)NC(CCC(=O)N[C@@H](CC(=O)O)C(=O)O)C(=O)O)cc1` (stereo partly drawn) gave an ILS at 5 mg/kg in [8] of 65%. The EC50 in assay [1] was 330 nM. In addition, the Km in assay [3] is above 300 µM. Besides, the MTX ratio in [5] came out at 140. The Ki in assay [6] worked out at 0.0028 nM.
As to `CCCCCNC(=O)CCC(NC(=O)c1ccc(N(C)Cc2cnc3nc(N)nc(N)c3n2)cc1)C(=O)O` (stereo not drawn), the ILS at 200 mg/kg in assay [9] worked out at 55%. Also, the EC50 in [1] came out at 55 nM. Besides, the values for the Ki in assay [2] and in assay [6] were 16800 nM and 0.0035 nM, respectively. In addition, the Km in [3] came to 16.9 µM. In assay [4], the k came to 0.26 min⁻¹. Also, the MTX ratio in assay [5] is recorded as 23.
For the compound `CNC(=O)CCC(NC(=O)c1ccc(N(C)Cc2cnc3nc(N)nc(N)c3n2)cc1)C(=O)O` (stereo not drawn), in [1], the EC50 stood at 27 nM. Also, the Km in [3] turned out to be 27.6 µM. Also, the k in assay [4] turned out to be 0.21 min⁻¹. Further, the MTX ratio in [5] was 11. This compound also gave a Ki in assay [6] of 0.0027 nM. Also, in [7], the ILS at 100 mg/kg turned out to be 58%.
For the compound `CN(Cc1cnc2nc(N)nc(N)c2n1)c1ccc(C(=O)NC(CCC(=O)O)C(=O)N[C@@H](CCC(=O)O)C(=O)O)cc1` (stereo partly drawn), in assay [1], the EC50 was 180 nM. Also, the Ki in [2] was found to be 61000 nM; in assay [6], 170 nM. For the same compound, the MTX ratio in assay [5] came to 75. In assay [10], the ILS at 25 mg/kg came to 67%.
For the compound `CN(Cc1cnc2nc(N)nc(N)c2n1)c1ccc(C(=O)NC(CCC(=O)N[C@@H](CCC(=O)O)C(=O)O)C(=O)O)cc1` (stereo partly drawn), the EC50 in [1] worked out at 5.2 nM. For the same compound, the ILS at 2.5 mg/kg in [11] was found to be 65%. In addition, the Km in assay [3] came to 49.3 µM. This compound had a k in [4] of 0.22 min⁻¹. In addition, the MTX ratio in assay [5] is on record as 2.2. For the same compound, the affinity in assay [6], expressed as Ki, was 0.0037 nM.
Take `CN(Cc1cnc2nc(N)nc(N)c2n1)c1ccc(C(=O)N[C@@H](CCC(=O)O)C(=O)O)cc1` [METHOTREXATE]: the ILS at 1.3 mg/kg in assay [12] worked out at 48%. The compound also had a Ki in [2] of 3500 nM. Besides, in assay [3], the Km is 3.3 µM. The compound further returned a k in assay [4] of 0.23 min⁻¹.
Regarding `CN(Cc1cnc2nc(N)nc(N)c2n1)c1ccc(C(=O)NC(CCC(=O)O)C(=O)NCC(=O)O)cc1` (stereo not drawn), in [13], the increase in life span (ILS) at 50 mg/kg came out at 41%. Also, the EC50 in [1] stood at 590 nM. Further, the Ki in [2] was found to be 66600 nM; in assay [6] it was 208 nM. Moreover, in [5], the MTX ratio stood at 370.
In the case of `CN(C)C(=O)CCC(NC(=O)c1ccc(N(C)Cc2cnc3nc(N)nc(N)c3n2)cc1)C(=O)O` (stereo not drawn), in assay [13], the ILS at 50 mg/kg is 44%. Also, the EC50 in assay [1] turned out to be 59 nM. Moreover, the Km in assay [3] was 48.4 µM. The compound also displayed a k in assay [4] of 0.26 min⁻¹. In addition, in assay [5], the MTX ratio was determined as 25. Moreover, the affinity in [6] corresponds to a Ki of 0.0039 nM.
In the case of `CN(Cc1cnc2nc(N)nc(N)c2n1)c1ccc(C(=O)NC(CCC(=O)O)C(=O)N[C@@H](CC(=O)O)C(=O)O)cc1` (stereo partly drawn), in assay [1], the EC50 amounted to 520 nM. Also, the Ki is 146000 nM in assay [2] and 208 nM in [6]. Further, in [5], the MTX ratio is 217. This compound also yielded an ILS at 25 mg/kg in assay [10] of 47%.
For `CN(Cc1cnc2nc(N)nc(N)c2n1)c1ccc(C(=O)NC(CCC(N)=O)C(=O)O)cc1` (stereo not drawn), the EC50 in assay [1] was determined as 28 nM. In addition, the Ki in [2] turned out to be 8400 nM; in [6], 0.0027 nM. In [3], the Km stood at 9.4 µM. The compound further registered a k in assay [4] of 0.15 min⁻¹. In addition, the ILS at 180 mg/kg in [14] amounted to 58%. The MTX ratio in [5] is listed as 12.
In the case of `CN(Cc1cnc2nc(N)nc(N)c2n1)c1ccc(C(=O)NC(CCC(=O)O)C(N)=O)cc1` (stereo not drawn), the EC50 in [1] is 610 nM. Also, the MTX ratio in assay [5] was 250. The compound further showed an ILS at 25 mg/kg in [10] of 34%. Moreover, the Ki in [6] was 460 nM.
